We go through 14 compounds from ChEMBL document CHEMBL3860036, “Sesquiterpene Hydroquinones with Protein Tyrosine Phosphatase 1B Inhibitory Activities from a Dysidea sp. Marine Sponge Collected in Okinawa” (J Nat Prod, 2016).

What is called inhibition is the share of the control response that was lost under treatment. Broadly, the IC50 is the concentration at which inhibition is half-maximal.

The first assay addresses T1, Tyrosine-protein phosphatase non-receptor type 1 (Homo sapiens) (UniProt P18031).
T1 sequence (whole entry): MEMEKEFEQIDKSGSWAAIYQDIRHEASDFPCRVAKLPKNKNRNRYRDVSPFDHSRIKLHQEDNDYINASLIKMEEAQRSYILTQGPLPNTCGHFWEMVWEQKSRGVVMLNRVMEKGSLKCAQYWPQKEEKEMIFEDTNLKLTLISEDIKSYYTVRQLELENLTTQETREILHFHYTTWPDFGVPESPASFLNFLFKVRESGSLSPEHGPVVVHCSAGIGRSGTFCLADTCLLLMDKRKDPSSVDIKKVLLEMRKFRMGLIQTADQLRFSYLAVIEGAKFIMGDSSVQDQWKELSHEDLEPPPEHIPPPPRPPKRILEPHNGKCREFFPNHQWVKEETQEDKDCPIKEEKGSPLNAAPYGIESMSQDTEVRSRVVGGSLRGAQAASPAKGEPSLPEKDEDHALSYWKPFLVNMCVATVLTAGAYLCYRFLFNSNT
The note with it: 25 uM.
Description: Inhibition of recombinant human PTP1B (1 to 322 residues) expressed in Escherichia coli at 25 uM preincubated for 10 mins followed by pNPP substrate addition measured after 30 mins relative to control
`CC(=O)Oc1ccc(OC(C)=O)c(C[C@]2(C)[C@@H](C)CC[C@]3(C)C(C)=CCC[C@@H]23)c1` came in with an inhibition of 5%.

For another assay, the target named is T2, Tyrosine-protein phosphatase non-receptor type 1 (Homo sapiens, UniProt P18031).
T2 sequence (P18031 whole entry): T1 sequence (whole entry)
Conditions: not given
`C=C1CCC[C@H]2[C@](C)(Cc3cc(O)ccc3OC(C)=O)[C@@H](C)CC[C@]12C`: the midpoint of inhibition, the IC50, lay at 6.5 µM. `CC1=CCC[C@H]2[C@]3(C)Cc4cc(O)ccc4O[C@]3(C)CC[C@]12C` came in with an IC50 of 11 µM. This IC50 is about 1.7-fold higher than that of the compound before. As for `CC(=O)Oc1ccc(O)cc1C[C@]1(C)[C@@H](C)CC[C@]2(C)C(C)=CCC[C@@H]12`, the IC50 turned out to be 9.5 µM. This IC50 and that of the compound before are within 1.5-fold of each other. `CC1=CCC[C@H]2[C@](C)(Cc3cc(O)ccc3O)[C@@H](C)CC[C@]12C` [AVAROL] showed an IC50 of 12 µM. Turning to `C=C1CCC[C@H]2[C@](C)(Cc3cc(OC(C)=O)ccc3O)[C@@H](C)CC[C@]12C`, the IC50 was found to be 8.6 µM. The compound `C=C1CCC[C@H]2[C@](C)(Cc3cc(OC(=O)CC)ccc3OC(=O)CC)[C@@H](C)CC[C@]12C` showed an IC50 of 9.4 µM. As to `C=C1CCC[C@H]2[C@](C)(Cc3cc(O)ccc3O)[C@@H](C)CC[C@]12C`, the IC50 was over 32 µM. On the same count and under the same terms, the result for `CC1=CCC[C@H]2[C@](C)(CC3=CC(=O)C=C(N)C3=O)[C@@H](C)CC[C@]12C` reads 18 µM; that for `C=C1CCC[C@H]2[C@](C)(Cc3cc(OC(C)=O)ccc3OC(C)=O)[C@@H](C)CC[C@]12C`, 14 µM; that for `CC(=O)Oc1ccc(O)c(C[C@]2(C)[C@@H](C)CC[C@]3(C)C(C)=CCC[C@@H]23)c1`, 10 µM. The compound `CCC(=O)Oc1ccc(OC(=O)CC)c(C[C@]2(C)[C@@H](C)CC[C@]3(C)C(C)=CCC[C@@H]23)c1` displayed an IC50 of 8.8 µM.

The target in the next assay is T1, Tyrosine-protein phosphatase non-receptor type 1 (Homo sapiens). Particulars: 32 uM.
Description: Inhibition of recombinant human PTP1B (1 to 322 residues) expressed in Escherichia coli at 32 uM preincubated for 10 mins followed by pNPP substrate addition measured after 30 mins relative to control
In turn, `C=C1CCC[C@H]2[C@](C)(Cc3cc(O)ccc3O)[C@@H](C)CC[C@]12C` had an inhibition of 35%.

For the next assay the target is unchanged. Briefly: Inhibition of recombinant human PTP1B (1 to 322 residues) expressed in Escherichia coli at 31 uM preincubated for 10 mins followed by pNPP substrate addition measured after 30 mins relative to control.
Conditions: not given
`COc1ccc(O)c(C[C@]2(C)[C@@H](C)CC[C@]3(C)C(C)=CCC[C@@H]23)c1`: the inhibition worked out at 0%.

`C=C1CCC[C@H]2[C@](C)(Cc3cc(OC)ccc3O)[C@@H](C)CC[C@]12C`: the inhibition is 50%.
